The values that follow come from US3989466.

Data set [1] in a line: not told for nicotinamide; caffeine D in same system by direct partitioning in a separatory funnel with UV absorbance.
A short description of data set [2]: not told.

For `NC(=O)c1cccnc1`, in data set [1], the “partition coefficient (concentration ratio)” value is 0.19 concentration ratio (mg/ml per mg/ml).
Turning to `CC1(C)Nc2cccc3c(N=Nc4ccc(N=Nc5ccccc5)c5ccccc45)ccc(c23)N1`, the “partition coefficient (concentration ratio)” value in data set [2] is given as “ca. 2.0 concentration ratio (mg/ml per mg/ml)”.
On the same count and under the same terms, next, `Oc1ccc(N=Nc2ccccc2)cc1`: “ca. 0.50 concentration ratio (mg/ml per mg/ml)”.
